# Reference: PubChem BioAssay (NCI)
#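 Protocol summary: plate cells (96-well), add compound at 5 concentrations, incubate 48 h, interpolate endpoints linearly. GI50 = concentration required for 50% inhibition of growth. TGI is the concentration that stops growth completely.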
# Columns and labels:
# Assay in all cases: NCI tumour cell line growth inhibition, 48 h
# BT-549 breast = test system: BT-549 breast
# COLO 205 colon = test system: COLO 205 colon
# HCT-116 colon = test system: HCT-116 colon
# MCF7 breast = test system: MCF7 breast
# NCI/ADR-RES ovarian = test system: NCI/ADR-RES ovarian
# SF-268 CNS = test system: SF-268 CNS
# SNB-75 CNS = test system: SNB-75 CNS
# EKVX NSCLC = test system: EKVX NSCLC
# HCT-15 colon = test system: HCT-15 colon
# SN12C renal = test system: SN12C renal
SMILES,GI50 (BT-549 breast),TGI (BT-549 breast),GI50 (COLO 205 colon),TGI (COLO 205 colon),GI50 (HCT-116 colon),TGI (HCT-116 colon),GI50 (MCF7 breast),TGI (MCF7 breast),GI50 (NCI/ADR-RES ovarian),TGI (NCI/ADR-RES ovarian),GI50 (SF-268 CNS),TGI (SF-268 CNS),GI50 (SNB-75 CNS),TGI (SNB-75 CNS),TGI (EKVX NSCLC),TGI (HCT-15 colon),TGI (SN12C renal),GI50 (EKVX NSCLC),GI50 (HCT-15 colon),GI50 (SN12C renal)
COc1ccc(Cl)cc1NC(=O)c1c(NC(=O)C(F)(F)C(F)(F)F)sc2c1CCCCC2,2.06 µM,7.23 µM,1.3 µM,2.8 µM,1.3 µM,5.67 µM,1.68 µM,8.68 µM,1.8 µM,8.37 µM,1.09 µM,> 100 µM,1.49 µM,5.64 µM,,,,,,
O=c1c(O)c(-c2cc(O)c(O)cc2O)oc2cc(O)c(C3OC(CO)C(O)C(O)C3O)c(O)c12 (stereo not given),,> 100 µM,,,,> 100 µM,,> 100 µM,,> 100 µM,,> 100 µM,,> 100 µM,> 100 µM,> 100 µM,> 100 µM,,,
CC12CC3(O)OC(O1)C1(COC(=O)c4ccccc4)C3CC21OC1OC(CO)C(O)C(O)C1O (stereo not given),,> 100 µM,,> 100 µM,,> 100 µM,,> 100 µM,,> 100 µM,,> 100 µM,,,> 100 µM,> 100 µM,> 100 µM,,,
COC(=O)c1cc2c3c(cc(O)c2[nH]1)N(C(=O)C1Cc2cc(OC)c(OC)c(OC)c2N1)CC3CCl (stereo not given),< 0.01 µM,< 0.01 µM,,,,,,,< 0.01 µM,> 100 µM,< 0.01 µM,0.646 µM,,,< 0.01 µM,10.4 µM,0.0154 µM,< 0.01 µM,< 0.01 µM,< 0.01 µM
Cn1c2ccccc2n2c(=O)c3cccnc3c(C#N)c12,,> 100 µM,,> 100 µM,,> 100 µM,,,,> 100 µM,,> 100 µM,,> 100 µM,> 100 µM,> 100 µM,> 100 µM,,,
CCOC(=O)C(C)(C)/C=C\C(Cl)=C(Cl)Cl,,,,> 100 µM,,> 100 µM,,,,> 100 µM,,> 100 µM,,> 100 µM,> 100 µM,,> 100 µM,,,
Fc1cc(-c2ncc(Cl)cc2Cl)c2cccccc1-2,,> 100 µM,,> 100 µM,,> 100 µM,,> 100 µM,,> 100 µM,,> 100 µM,,> 100 µM,> 100 µM,> 100 µM,,,,
CC(=N/NC(=S)N1CCCCC1)/C(C)=N\NC(=S)N1CCCCC1,,3.38 µM,,3.62 µM,,,,,,5.22 µM,,3.45 µM,,3.14 µM,3.11 µM,5.31 µM,3.2 µM,,,
COc1cc(C(=O)Nc2c3ccccc3nc3ccccc23)cc(OC)c1OC,,> 100 µM,,> 100 µM,,> 100 µM,,> 100 µM,,> 100 µM,,> 82 µM,,,> 100 µM,> 100 µM,> 100 µM,,,
O=c1[nH]c(Nc2cccc(Br)c2)nc2nc[nH]c12,,> 100 µM,,> 100 µM,,> 100 µM,,> 100 µM,,> 100 µM,,> 100 µM,,> 100 µM,> 100 µM,> 100 µM,,,,
Nc1nc(N)c2nc(-c3ccco3)cnc2n1,,,,> 100 µM,,> 100 µM,,,,,,> 100 µM,,80 µM,> 100 µM,> 100 µM,> 100 µM,,,
COc1cc(/C=C2\CN(S(=O)(=O)c3ccc(C)cc3)C/C(=C\c3cc(CN4CCCCC4)c(O)c(OC)c3)C2=O)cc(CN2CCCCC2)c1O,1.38 µM,2.77 µM,1.68 µM,3.58 µM,,,0.375 µM,2.39 µM,1.22 µM,3.77 µM,,,1.64 µM,3.41 µM,4.58 µM,,3.42 µM,1.98 µM,,1.77 µM
CSc1nc(O)c(/C=C2\C=Nc3ccccc32)[nH]1,,> 100 µM,,> 100 µM,,> 100 µM,,> 100 µM,,> 100 µM,,> 100 µM,,> 100 µM,,> 100 µM,> 100 µM,,,
CN(C)CCNC(=O)c1ccc(NCCCN(C)CCCNc2ccc(C(=O)NCCN(C)C)c3[nH]c4ccc([N+](=O)[O-])cc4c(=O)c23)c2c(=O)c3cc([N+](=O)[O-])ccc3[nH]c12,,2.64 µM,,0.502 µM,,0.644 µM,,0.655 µM,,3.58 µM,,,,1.21 µM,,1.8 µM,0.668 µM,,,
O=C1/C(=C/c2cccs2)NC(=S)N1CN1CCOCC1,,,,> 100 µM,,> 100 µM,,> 100 µM,,> 100 µM,,> 100 µM,,> 100 µM,> 100 µM,> 100 µM,> 100 µM,,,
O=C1CC(c2ccc[nH]2)=NN1c1ccccc1,,> 100 µM,,> 100 µM,,> 100 µM,,,,> 100 µM,,> 100 µM,,> 100 µM,> 100 µM,> 100 µM,> 100 µM,,,
CCn1c(-c2ccc(C)cc2)cs/c1=N\C(P(=O)(O)O)P(=O)(O)O,,> 100 µM,,> 100 µM,,> 100 µM,,> 100 µM,,> 100 µM,,> 100 µM,,> 100 µM,> 100 µM,> 100 µM,,,,
CCOC(=O)c1cc(=O)oc2c1N(C)c1ncccc1N2,,> 100 µM,,> 100 µM,,> 100 µM,,> 100 µM,,> 100 µM,,> 100 µM,,> 100 µM,,> 100 µM,> 100 µM,,,
CC1(C)N=C(/C=N/O)C(C)(C)N1O,,,,> 100 µM,,> 100 µM,,> 100 µM,,> 100 µM,,> 100 µM,,> 100 µM,> 100 µM,> 100 µM,> 100 µM,,,
COc1ccc(CCc2ccc(O)c(C(=O)O)c2)cc1OC,,,,> 100 µM,,> 100 µM,,> 100 µM,,> 100 µM,,> 100 µM,,> 100 µM,> 100 µM,> 100 µM,> 100 µM,,,
C=Cc1cc2c(cc1O)CC[C@@H]1[C@@H]2CC[C@]2(C)[C@@H](O)CC[C@@H]12,,,,30.1 µM,2.57 µM,12.1 µM,,,,5.3 µM,,21.9 µM,,24.4 µM,29 µM,28.8 µM,19.5 µM,,,5.12 µM
O=C(CN1CCOCC1)CC(O)(C(F)(F)F)C(F)(F)F,,> 100 µM,,> 100 µM,,> 100 µM,,> 100 µM,,> 100 µM,,,,> 100 µM,> 100 µM,> 100 µM,,,,
